Patent EP3549947B1, “POLYRGD PEPTIDES OBTAINED BY CHEMICAL AND BIOTECHNOLOGY METHODS WITH INJURY REDUCING AND/OR NEUROPROTECTIVE EFFECTS AND A KIT FOR THEIR ACTIVITY EVALUATION” (Uniwersytet Gdanski, priority 2018, dated 2019)
Entries after “also recorded” stand apart in the source; their conditions may differ.

Columns and labels:
[1] = tested on: primary neural cells; assay: Multifactorial in vitro model of neurological injury (six injury factors), CellTiterBlue viability; format: cell-based, Wistar rat; settings: 1-hour injury factor (glucose deprivation, acidosis pH 6.35 + 200 mM sodium lactate, 10 mM sodium azide, 400 µM glutamic acid, 800 µM NMDA or 800 µM kainic acid), then 20 hour incubation with 100 µM peptide (RGD10: 1 µg/ml)
Protocol: (§1) Primary neural cortical cultures were obtained from Wistar rat E18.5 embryos. To this end, pregnant rat females were anesthetized and euthanized in a CO2 chamber. In some cases, euthanasia was performed by isoflurane. The cortex tissue was excised from the isolated embryos and washed with HBSS buffer, supplemented with a mixture of penicillin and streptomycin, and HEPES. Afterwards, the cortex tissue was trypsinized for 10 minutes at 37 °C and homogenized mechanically in order to disintegrate the tissue to the form of a cell suspension. The cells were the centrifuged at 300 rcf for 4 minutes, resuspended once more in HBSS and quantified in a Bürker chamber in order to obtain a cell suspension of proper density. […]
(§2) A subject of the invention constitutes a diagnostic methodology for measuring the neuroprotective activity of peptides in a model of several factors co-occurring during any neurological injury. […] These injury conditions were optimized so that the strength of each injury factor causes a 30-40% decrease in response in a CellTiterBlue-based evaluation (a CTB fluorophore in a modified biochemical assay of the MTT type) of cellular viability, relying on quantitative analysis of mitochondrial metabolic functions. […] The fluorescence intensity of the CTB agent is measured spectrofluorimetically (560ex/590em) and is proportional to the number of living cells. […]

[2] = tested on: primary neural cortical cultures; assay: Viability assay (CellTiterBlue) of primary neural cultures exposed to polyRGD peptides; format: cell-based, Wistar rat; settings: reference peptide at 50 µM, 20 hour exposure
Protocol: as §1, §2

| Compound | injury-reducing and/or neuroprotective activity (neural cell viability) [1] | injury-reducing and/or neuroprotective activity (neural cell viability) ([1]; listed as RGD 1) | cytotoxic effects (viability of neural culture) [2] |
| --- | --- | --- | --- |
| N=C(N)NCCC[C@H](N)C(=O)NCC(=O)N[C@@H](CC(=O)O)C(N)=O [RGD1, H2N-RGD-amide] | significant increase in neural cell viability with regard to all injury factors; also recorded: significant injury-reducing and/or neuroprotective efficacy with respect to all six injury factors | broadest spectrum of activity |  |
| Tat(49-57)NH2 [TAT peptide] |  |  | None of the analyzed peptides displayed significant cytotoxic effects in the assessed concentration ranges, as well as a reference factor |
